The results in this text go back to patent EP0313782A2, “Antimycotic preparations” (BAYER AG, priority 1987, dated 1989).

The subject of the experiment is Candida-Zellen. The experiment can be described thus: Antimycotic in vivo efficacy (oral) in mouse candidiasis. Also on record: species or system Mäuse vom Typ SPF-CF₁. The note with it: for Wirkung: mice infected i.v. with 1 - 2 x 10⁶ Candida cells, oral treatment 1 h before and 7 h after infection, 10 - 100 mg/kg each, survivors on day 6 p.i. (untreated controls about 5 %); for Wirkung (comparison with the known compounds (A) and (B)): same test, statement in words in the text. On the procedure: Antimykotische in-vivo-Wirksamkeit (oral) bei Mäusecandidose
Mäuse vom Typ SPF-CF₁ wurden intravenös mit 1 - 2 x 10⁶ logarithmisch wachsenden Candida-Zellen, die in physiologischer Kochsalzlösung suspendiert werden, infiziert. Eine Stunde vor und sieben Stunden nach der Infektion werden die Tiere mit jeweils 10 - 100 mg/kg Körpergewicht der Präparate oral behandelt.
Unbehandelte Tiere starben 3 bis 6 Tage post infektionem. Die Überlebensrate am 6.Tag post infektionem betrug bei unbehandelten Kontrolltieren etwa 5 %.

Turning to `OC(Cn1cncn1)(c1ccc(F)cc1)C1(SC(F)(F)F)CC1` (stereo not drawn) [I-4], the Wirkung result is recorded as “+++++ (sehr gute Wirkung = 90 % Überlebende am 6.Tag.p.i.)”; the “Wirkung (comparison with the known compounds (A) and (B))” value is given as “bessere Wirkung”.
For the molecule `[O-][S+](C(F)(F)F)C1(C(O)(Cn2cncn2)c2ccc(F)cc2F)CC1` (stereo not drawn) [I-2, 1-(2,4-Difluorphenyl)-1-hydroxy-2-(1,2,4-triazol-1-yl)-1-(trifluormethylsulfoxy-cycloprop-1-yl)-ethan], the Wirkung entry is “+++++ (sehr gute Wirkung = 90 % Überlebende am 6.Tag.p.i.)”; the “Wirkung (comparison with the known compounds (A) and (B))” value is “bessere Wirkung”.
In the same order, the values of `OC(Cn1cncn1)(c1ccc(F)cc1F)C1(SC(F)(F)F)CC1` (stereo not drawn) [I-1, 1-(2,4-Difluorphenyl)-1-hydroxy-2-(1,2,4-triazol-1-yl)-1-(1-trifluormethylmercapto-cycloprop-1-yl)-ethan] are “+++++ (sehr gute Wirkung = 90 % Überlebende am 6.Tag.p.i.)” and “bessere Wirkung”.
